Drawing on patent publication US8163789B2, “Selective and dual-action p53/MDM2/MDM4 antagonists” (University of Pittsburgh—of the Commonwealth System of …, priority 2007, dated 2012), this text covers GI50 and Ki for 41 compounds.

Each structure is given as a SMILES string.

MDM2, sequence (Q00987 whole entry): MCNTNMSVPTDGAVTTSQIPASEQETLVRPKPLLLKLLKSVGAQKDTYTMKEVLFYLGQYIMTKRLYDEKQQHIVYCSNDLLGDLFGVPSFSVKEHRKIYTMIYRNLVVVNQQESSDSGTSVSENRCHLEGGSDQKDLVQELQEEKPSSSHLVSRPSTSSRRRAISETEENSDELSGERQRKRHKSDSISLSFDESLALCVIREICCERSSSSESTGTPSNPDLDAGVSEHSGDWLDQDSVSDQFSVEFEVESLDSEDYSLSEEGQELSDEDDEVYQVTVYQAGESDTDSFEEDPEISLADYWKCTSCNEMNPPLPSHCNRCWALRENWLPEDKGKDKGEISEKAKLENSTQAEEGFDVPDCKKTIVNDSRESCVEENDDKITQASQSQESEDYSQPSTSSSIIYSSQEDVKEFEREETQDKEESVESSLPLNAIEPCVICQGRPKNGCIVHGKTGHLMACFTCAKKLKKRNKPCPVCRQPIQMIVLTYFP

The first test deals with HCT116 cells. Put plainly: GI50 against HCT116 cells in culture. It is filed as cell-based. The settings on record: Homo sapiens, HCT-116, imidazole scaffold, Table 2. How it is done:
A second approach for increasing affinity, entails introducing substituents in the 2-position of the imidazole ring to gain additional van der Waals interaction and even water solubility. A substituent in the 2-position would mimic the interactions of the Leu (FSDLWKLL) in p53, which contributes additional van der Waals interactions in addition to FWL. Optimization of compounds that belong to this family was carried out as shown in Scheme 1. Table 2 lists representative analogs that were synthesized with their GI50 values against HCT116 cells in culture. The chemistry to accomplish substitution at position-2 of the immidazole ring would involve generation of the carbanion using LDA and subsequent alkylation with iminium salts or other alkylating agents.
One may read the GI50 as the concentration at which growth is held to half of that of the control. Low readings indicate greater sensitivity of the cells, high ones lower sensitivity of the cells. For the compound `Clc1ccc(-c2ncn(CC3CC3)c2-c2cc3ccc(Cl)cc3[nH]2)cc1`, the GI50 was ~40 µM. For the compound `Clc1ccc(-c2ncn(CC3CC3)c2-c2c[nH]c3cc(Cl)ccc23)cc1`, the GI50 was ~40 µM.

Take `C[C@@H](c1ccc(Cl)cc1)n1cnc(-c2ccc(Cl)cc2)c1-c1cc2ccc(Cl)cc2[nH]1`: the GI50 was ~20 µM. Regarding `Clc1ccc2c(-c3c(-c4ccc5c(c4)OCO5)ncn3CC3CC3)c[nH]c2c1`, the GI50 is ~1 µM. Regarding `Clc1cccc(Cc2ncn(CC3CC3)c2-c2c[nH]c3ccccc23)c1`, the GI50 was ~25 µM. On to `Fc1cc(Cl)ccc1-c1c(-c2ccc(Cl)cc2)ncn1Cc1ccccc1`, for which the GI50 is ~20 µM. On to `Clc1ccc2c(-c3c(-c4ccc(Cl)c(Cl)c4)ncn3CC3CC3)c[nH]c2c1`, for which the GI50 was ~10 µM. For `Clc1ccc(-c2ncn(CC3CC3)c2-c2c[nH]c3ccccc23)cc1`, the GI50 was ~35 µM. Take `CC(c1cccc2ccccc12)n1cnc(-c2ccc(Cl)cc2)c1-c1cc2ccc(Cl)cc2[nH]1` (stereo not shown): the GI50 is ~5 µM. On to `C[C@H](c1ccc(Cl)cc1)n1cnc(-c2ccc(Cl)cc2)c1-c1cc2ccc(Cl)cc2[nH]1`, for which the GI50 is ~20 µM. In the case of `CC(C)(C)OC(=O)n1cc(-c2c(-c3ccc(Cl)cc3)ncn2CC2CC2)c2ccc(Cl)cc21`, the GI50 was ~50 µM. On to `CC(c1ccc(Cl)cc1)n1cnc(-c2ccc(Cl)cc2)c1-c1cc2ccc(Cl)cc2[nH]1` (stereo not shown), for which the GI50 was ~30 µM.

On to `Clc1ccc(-c2ncn(CC3CC3)c2-c2ccc(Cl)cc2)cc1`, for which the GI50 was ~10 µM. `CN(C)Cc1nc(-c2ccc(Cl)cc2)c(-c2ccc(Cl)cc2)n1CC1CC1`: the GI50 is ~20 µM.

Another test concerns the target T1, MDM4 (Homo sapiens, UniProt O15151).
T1 sequence (O15151 1-490): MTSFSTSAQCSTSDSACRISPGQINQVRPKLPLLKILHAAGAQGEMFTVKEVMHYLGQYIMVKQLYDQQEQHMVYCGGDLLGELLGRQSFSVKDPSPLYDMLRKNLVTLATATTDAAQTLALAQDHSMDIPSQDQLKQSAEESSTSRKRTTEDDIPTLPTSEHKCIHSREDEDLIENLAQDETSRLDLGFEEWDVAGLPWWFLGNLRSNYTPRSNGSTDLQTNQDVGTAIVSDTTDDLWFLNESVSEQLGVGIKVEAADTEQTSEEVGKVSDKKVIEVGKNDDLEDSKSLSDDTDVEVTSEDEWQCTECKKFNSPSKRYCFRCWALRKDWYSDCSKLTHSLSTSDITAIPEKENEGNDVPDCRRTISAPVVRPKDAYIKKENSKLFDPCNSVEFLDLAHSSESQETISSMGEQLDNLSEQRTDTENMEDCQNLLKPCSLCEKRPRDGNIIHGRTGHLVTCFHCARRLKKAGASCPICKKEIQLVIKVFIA
Put plainly: NMR-based binding assay, MDM4. The conditions noted are these: imidazolidine scaffold, Table 3. How it is done:
(§1) In one of its aspects, the present invention provides a method for generating and screening virtual libraries based on 40 different MCRs having the indole fragment. The inventive method comprises docking individual molecules from the virtual library into a high resolution structure of the MDM2 protein. Docking is carried out by maintaining the same positional constraints on the indole ring of the docked molecule to those for the indole side chain in the high resolution X-ray structure of MDM2-p53 peptide. The compounds identified from docking experiments as potential inhibitors of MDM2-p53 interaction are then synthesized and tested for the inhibitory activity using an NMR-based binding assay. […] A similar strategy was used to identify and select compounds that could potentially be used as inhibitors for disrupting MDM4-p53 interaction.
The compounds identified using MCR were then screened for the ability to bind MDM2 or MDM4 (KA) (primary assay). The molecules identified as binders of MDM2 or MDM4 by the primary assay are subsequently tested for their ability to disrupt the MDM2/p53-peptide complex (KD) in a secondary assay. Based on the results from the primary and secondary assays, further downstream assays involving screening using various cell lines (PC3, A549, MDAMB231) and determination of the growth inhibition constants may be performed for a select sub-set of molecules. […]
As a reminder, the Ki is a dissociation constant, usually derived from enzyme kinetics or from competition with a known ligand. A low value points to tighter binding. Take `COC(=O)C1(c2ccccc2)N=CN(Cc2cccc(N)c2)C1c1ccc(Cl)cc1` (stereo not shown): the Ki was ~5 µM.

Another test addresses MDM2 (Homo sapiens, UniProt Q00987). Briefly: NMR-based binding assay, MDM2. The conditions noted are these: imidazole scaffold, Table 2. The protocol: as §1
Such an NMR-based screen has many advantages. For example, this screening method allows for the rapid determination of an approximate KA for the small molecule inhibitors, with the possibility of obtaining a more accurate KA value at a later time by titrating the p53-MDM2 complex using increasing concentrations of the inhibitor of interest. A second advantage of using this technique is that it allows identification of the binding site of the small molecule in the target protein by investigating the chemical shift perturbations that occur on binding. This information can then be used to further refine the chemical scaffold with an aim towards improving the affinity of the molecule for its target. Finally, NMR-based screening yields valuable information about promiscuous inhibitors which act as false positives by precipitating the target protein through hydrophobic effects. This information is not available when classical screening approaches such as fluorescence polarization or ELISA type assays are used for screening.
The compounds identified using MCR were then screened for the ability to bind MDM2 or MDM4 (KA) (primary assay). The molecules identified as binders of MDM2 or MDM4 by the primary assay are subsequently tested for their ability to disrupt the MDM2/p53-peptide complex (KD) in a secondary assay. Based on the results from the primary and secondary assays, further downstream assays involving screening using various cell lines (PC3, A549, MDAMB231) and determination of the growth inhibition constants may be performed for a select sub-set of molecules. Western blot analysis of certain compounds is performed to determine p53, MDM2, and p21 content.
In the case of `Clc1ccc(-c2ncn(CC3CC3)c2-c2ccc(Cl)cc2)cc1`, the Ki is ~50 µM.

Still in this test, the particulars now being: imidazolidine scaffold, Table 3.
With `COC(=O)C1(c2ccccc2)N=CN(CC2CC2)C1c1c[nH]c2ccccc12` (stereo not shown), the Ki is ~30 µM.

With `COC(=O)C12N=CN(CC3CC3)C1c1ccc(Cl)cc1C2C` (stereo not shown), the Ki is ~2 µM. Regarding `COC(=O)C1(c2ccccc2)N=CN(C(C)c2ccc(Cl)cc2)C1c1ccc(Cl)cc1` (stereo not shown), the Ki is ~20 µM. On to `COC(=O)C1(c2ccccc2)N=CN(C2CCCCC2)C1c1ccc(Cl)cc1` (stereo not shown), for which the Ki is ~20 µM. Same read-out and setting: under `O=C(N1CCNCC1)C1(c2ccccc2)N=CN(CC2CC2)C1c1ccc(Cl)cc1` (stereo not shown) stands ~1 µM; under `COC(=O)C1(c2ccccc2)N=CN(c2ccc(Cl)cc2)C1c1ccc(Cl)cc1` (stereo not shown), ~5 µM.

Take `O=C(NCCN1CCOCC1)C1(c2ccccc2)N=CN(CC2CC2)C1c1ccc(Cl)cc1` (stereo not shown): the Ki was 1 µM. For the compound `COC(=O)C1(c2ccccc2)N=CN(C2CCNCC2)C1c1ccc(Cl)cc1` (stereo not shown), the Ki was ~50 µM.

Regarding `COC(=O)C1(c2ccc(Cl)cc2)N=CN(CC2CC2)C1c1ccc(Cl)cc1` (stereo not shown) [drawing 67], the Ki is ~40 µM.

As to `COC(=O)C1(c2ccccc2)N=CN(CC2CC2)C1c1cc2ccc(Cl)cc2[nH]1` (stereo not shown), the Ki is ~40 µM. Compound `O=C(NCCCN1CCOCC1)C1(c2ccccc2)N=CN(CC2CC2)C1c1ccc(Cl)cc1` (stereo not shown) came in with a Ki of 1 µM. That is a single-digit micromolar value. Same read-out and setting: under `COC(=O)C1(c2ccccc2)N=CN(Cc2cccnc2)C1c1ccc(Cl)cc1` (stereo not shown) stands ~5 µM; under `COC(=O)C1(C)N=CN(CC2CC2)C1c1c[nH]c2ccccc12` (stereo not shown), ~50 µM; under `O=C(O)C1(c2ccccc2)N=CN(CC2CC2)C1c1ccc(Cl)cc1` (stereo not shown), ~50 µM. In the case of `COC(=O)C1(c2ccccc2)N=CN(CC2CCCNC2)C1c1ccc(Cl)cc1` (stereo not shown), the Ki was ~20 µM. Take `COC(=O)C1(CCSC)N=CN(CC2CC2)C1c1ccc(Cl)cc1` (stereo not shown): the Ki was ~10 µM. In the case of `COC(=O)C1(C)N=CN(CC2CC2)C1c1cc2ccc(Cl)cc2[nH]1` (stereo not shown), the Ki is ~50 µM. Consider `COC(=O)C1(CCSC)N=CN(CC2CC2)C1c1ccc(Br)cc1` (stereo not shown), for which the Ki is ~20 µM.

For `COC(=O)C1(c2ccccc2)N=CN(CC2CC2)C1c1ccc(Cl)cc1F` (stereo not shown) [drawing 45], the Ki is ~2 µM.

Regarding `COC(=O)C1(C)N=CN(CC2CC2)C1c1ccc(Cl)cc1` (stereo not shown), the Ki was ~2 µM. In the case of `COC(=O)C1(c2ccc(Cl)cc2)N=CN(CC2CC2)C1c1ccc(Cl)cc1` (stereo not shown) [drawing 44], the Ki was ~5 µM. The same measure, in the same setting: to `COC(=O)C1(c2ccc(Cl)cc2)N=CN(CC2CC2)C1c1cc2ccc(Cl)cc2[nH]1` (stereo not shown) belongs ~50 µM. Turning to `COC(=O)C1(c2ccccc2)N=CN(CC(C)C)C1c1ccc(Cl)cc1` (stereo not shown), the Ki is ~10 µM. Still for that read-out and setting: to `COC(=O)C1(c2ccccc2)N=CN(CC2CC2)C1c1ccc(Br)cc1` (stereo not shown) belongs ~6 µM; to `COC(=O)C1(c2ccccc2)N=CN(Cc2cccc(N)c2)C1c1ccc(Cl)cc1` (stereo not shown), ~5 µM. For `COC(=O)C1(CC(C)C)N=CN(CC2CC2)C1c1ccc(Cl)cc1` (stereo not shown), the Ki is ~1 µM. Regarding `COC(=O)C1(c2ccccc2)N=CN(CC2CC2)C1c1ccc(Cl)cc1F` (stereo not shown) [drawing 58], the Ki is ~2 µM.
